These results are taken from US20200281932A1, “FORMULATIONS OF COPANLISIB” (Bayer Pharma Aktiengesellschaft, priority 2017, published 2020).

Data set [1] can be described thus: Hydrolytic stability of copanlisib in aqueous solutions (HPLC). The format is physicochemical. Conditions: water, buffer pH 7, 0.1 M hydrochloric acid and 0.1 M sodium hydroxide solution. As to the method:
The stationary phase is an XBridge Shield HPLC column (150 mm×3.0 mm, 3.5 μm particle size). For peak separation, gradient elution with a flow rate of 0.5 mL/min is chosen using a sodium dodecyl sulfate ion pair eluent (in water with phosphoric acid) as mobile phase A, and a sodium dodecyl sulfate ion pair eluent (in acetonitrile with 20% water and phosphoric acid) as mobile phase B. The applied gradient profile contains four steps running from 40% to 50% mobile phase B within 5 min, from 50% to 65% mobile phase B within 25 min and from 65% to 100% mobile phase B within another 5 min, followed by a 10 min isocratic phase at 100% mobile phase B. The column temperature is kept at 25° C. and the injection volume is 3.0 μL. […] (flow rate of 0.5 ml/min). […] The impurity was assayed at a wavelength of 210 nm and taken into account to determine the degradation products. The different aqueous solutions (0.05% copanlisib; after addition of 50% 2-propanol, [buffer solution filtered with 0.5 μm membrane filter]) were stored at 25° C. and 70° C. for 24 h and one week. An analytical HPLC-method has been developed to determine assay and organic impurities of copanlisib as well as degradation products.

The subject of data set [2] is relapsed or refractory indolent B-cell lymphoma. Briefly: Copanlisib in patients with relapsed or refractory indolent B-cell lymphoma: tumor response. Type of data set: in vivo, human.
Description: (§1) Methods: Patients with indolent B-cell non-Hodgkin lymphoma (4 subtypes: follicular (FL), marginal zone (MZL), small lymphocytic (SLL) and lymphoplasmacytoid/Waldenström macroglobulinemia (LPL-WM)) and relapsed after, or refractory to, ≥2 prior lines of treatment were eligible. […] Copanlisib (60 mg, I.V.) was intermittently administered on days 1, 8 and 15 of a 28-day cycle. The primary efficacy endpoint was objective tumor response rate (ORR) as assessed per independent radiologic review (Cheson et al., JCO 20:579, 2007).
The nature of data set [3]: Copanlisib in patients with relapsed or refractory indolent B-cell lymphoma: adverse events. The format is in vivo, human.
Description: as §1
Where [4] appears, read: full analysis set, 60 mg I.V. on days 1, 8 and 15 of a 28-day cycle.

Structures can show the parent of a compound that is named as a salt. Where two headings read alike, the source gives them in different places.

With `COc1c(OCCCN2CCOCC2)ccc2c1N=C(NC(=O)c1cnc(N)nc1)N1CCN=C21` [copanlisib, 2-amino-N-[7-methoxy-8-(3-morpholin-4-ylpropoxy)-2,3-dihydroimidazo[1,2-c]quinazolin-5-yl]pyrimidine-5-carboxamide], the “Hydrolytic stability in words” value in data set [1] is on record as “hydrolytic instability”. In data set [2] (at the time of primary analysis), the Median overall survival entry is “had not yet been reached”. Besides, the “KM-estimate of median PFS” value in data set [2] (full analysis set (range 0-736)) is listed as 340 days. Moreover, in data set [2] (setting [4]), the “overall response rate (ORR)” value is 59.2%, the “partial response (PR)” value came to 47.2%, the progressive disease was 2.1 % of patients and the stable disease is reported as 29.6 % of patients. In data set [3] (all grade), the “AE of interest: colitis” value was determined as 0.7%, the “AE of interest: diarrhea” value turned out to be 18%, the “AE of interest: lung infection” value is recorded as 14% and the “AE of interest: neutropenia” value amounted to 25%. Also, in data set [3] (all grade), the “AE of interest: pneumonitis” value was found to be 7%, the “treatment-related AE: hypertension” value is given as 29% and the “treatment-related AE: transient hyperglycemia” value is given as 49%. Also, in data set [3] (all-grade), the “Laboratory toxicity: alanine aminotransferase” value is 23% and the “Laboratory toxicity: aspartate aminotransferase” value worked out at 28%. Also, in data set [3] (full analysis set), the colonic perforations result was “No colonic perforations occurred”, the “deaths (number)” value is 6 and the “non-fatal opportunistic infections (number)” value is recorded as “two”. In data set [3] (grade 3+), the “AE of interest: colitis” value is listed as 0.7%, the “AE of interest: diarrhea” value came to 4%, the “AE of interest: lung infection” value is recorded as 11% and the “AE of interest: neutropenia” value was found to be 19%. In data set [3] (grade 3+), the “AE of interest: pneumonitis” value is recorded as 1.4%, the “treatment-related AE: hypertension” value turned out to be 23% and the “treatment-related AE: transient hyperglycemia” value is 40%. For the same compound, in data set [3] (grade-1), the “Laboratory toxicity: alanine aminotransferase” value came to 19% and the “Laboratory toxicity: aspartate aminotransferase” value is listed as 25%. For the same compound, in data set [3] (lung infection, respiratory failure, and a thromboembolic event), the “deaths attributed to copanlisib (number)” value worked out at 3.

In the case of `COc1c(OCCCN2CCOCC2)ccc2c1N=C(NC(=O)c1cnc(N)nc1)N1CCN=C21` [copanlisib dihydrochloride, 2-amino-N-[7-methoxy-8-(3-morpholin-4-ylpropoxy)-2,3-dihydroimidazo[1,2-c]quinazolin-5-yl]pyrimidine-5-carboxamide dihydrochloride], the “Descriptive term (according to Ph. Eur./USP)” value is “freely soluble” (0.1M Hydrochloric acid, 25° C.); “freely soluble” (Buffer (citrate) pH 3, 25° C.); “soluble” (Buffer (citrate) pH 4, 25° C.); “very slightly soluble” (Buffer (citrate) pH 5, 25° C.); “freely soluble” (Buffer (phosphate) pH 1, 25° C.); “freely soluble” (Buffer (phosphate) pH 2, 25° C.). For the same compound, the “Descriptive term (according to Ph. Eur./USP)” value is “practically insoluble” (Buffer (phosphate) pH 6, 25° C.); “practically insoluble” (Buffer (phosphate) pH 7, 25° C.); “freely soluble” (Water, 25° C.).
